Data: US20250059220A1, “SUBSTITUTED BENZOTHIOPHENE DERIVATIVES AND METHODS OF USE THEREOF” (Merck Sharp & Dohme LLC, priority 2021, published 2025)

Columns and labels:
human PTPN2 (1-387) = human PTPN2 (1-387) (Homo sapiens (Human), UniProt P17706); assay: Human PTPN2 Biochemical Assay; conditions: DiFMUP substrate
Procedure, shortened: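 Human PTPN2 (1-387) preincubated 30 min at RT with compound (10-point 3-fold series) in Tris pH 7.4 buffer with 0.5 mM DTT, then DiFMUP substrate added for 1 h at RT. Fluorescence at ex 360/em 460 nm, normalised to no-enzyme and enzyme controls; EC50 from 4-parameter fit.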

human PTPN1 (1-435) = human PTPN1 (1-435) (Homo sapiens (Human), UniProt P18031); assay: Human PTPN1 Biochemical Assay; conditions: DiFMUP substrate, read-out: PTP1B IC50
Chain of human PTPN1 (1-435) (P18031 whole entry): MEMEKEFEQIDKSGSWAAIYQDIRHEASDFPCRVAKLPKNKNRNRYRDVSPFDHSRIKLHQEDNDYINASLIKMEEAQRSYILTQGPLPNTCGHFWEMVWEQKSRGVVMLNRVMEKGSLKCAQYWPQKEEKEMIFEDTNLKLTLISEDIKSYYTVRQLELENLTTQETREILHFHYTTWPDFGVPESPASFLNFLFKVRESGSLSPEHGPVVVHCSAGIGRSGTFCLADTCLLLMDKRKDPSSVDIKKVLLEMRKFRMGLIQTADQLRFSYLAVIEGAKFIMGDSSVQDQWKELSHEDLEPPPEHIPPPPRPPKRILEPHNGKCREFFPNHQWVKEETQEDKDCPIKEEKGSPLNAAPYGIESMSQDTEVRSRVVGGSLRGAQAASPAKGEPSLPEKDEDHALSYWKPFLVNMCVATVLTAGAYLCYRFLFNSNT
Procedure, shortened: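 Read-out is DiFMUP hydrolysis fluorescence (360 nm excitation, 460 nm emission) after 1 h at room temperature, following 30 min enzyme–compound preincubation.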

Chain of human PTPN2 (1-387) (P17706 other isoform, or with tags, fused parts or gaps): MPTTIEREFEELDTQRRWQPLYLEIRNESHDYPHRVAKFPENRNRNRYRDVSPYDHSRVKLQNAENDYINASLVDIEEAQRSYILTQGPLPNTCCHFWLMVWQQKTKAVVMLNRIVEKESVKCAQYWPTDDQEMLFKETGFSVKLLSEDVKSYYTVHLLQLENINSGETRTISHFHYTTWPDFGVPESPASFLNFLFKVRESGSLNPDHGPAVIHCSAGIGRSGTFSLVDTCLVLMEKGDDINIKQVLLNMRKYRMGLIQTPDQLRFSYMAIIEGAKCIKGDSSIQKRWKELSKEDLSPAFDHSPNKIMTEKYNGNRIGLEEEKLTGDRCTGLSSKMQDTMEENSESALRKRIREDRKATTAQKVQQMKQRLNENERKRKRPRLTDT

Compound | IC50 (human PTPN2 (1-387)) | IC50 (human PTPN1 (1-435))
CS(=O)(=O)CCCOc1cc(C(N)=O)cc2c(C#N)c(C(F)(F)P(=O)(O)O)sc12 [Compound 421, ((5-carbamoyl-3-cyano-7-(3-(methylsulfonyl)propoxy)benzo[b]thiophen-2-yl)difluoromethyl)phosphonic acid] | 0.00487 µM | 0.0119 µM
CNC(=O)c1cc(OCCCS(C)(=O)=O)c2sc(C(F)(F)P(=O)(O)O)c(C#N)c2c1 [Compound 422] | 0.00784 µM | 0.0117 µM
N#Cc1c(C(F)(F)P(=O)(O)O)sc2c(OCCCS(N)(=O)=O)cc(C(N)=O)cc12 [Compound 423] | 0.0097 µM | 0.0115 µM
N#Cc1c(C(F)(F)P(=O)(O)O)sc2c(OCCCC(F)(F)F)cc(C(N)=O)cc12 [Compound 424] | 0.00669 µM | 0.0197 µM
N#Cc1c(C(F)(F)P(=O)(O)O)sc2c(OCC3CC3(F)F)cc(C(N)=O)cc12 (centres unmarked) [Compound 425] | 0.0228 µM | 0.0308 µM
N#Cc1c(C(F)(F)P(=O)(O)O)sc2c(OCC3CC3(F)F)cc(C(N)=O)cc12 (centres unmarked) [Compound 426] | 0.0103 µM | 0.0137 µM
CNC(=O)c1cc(OCCCS(N)(=O)=O)c2sc(C(F)(F)P(=O)(O)O)c(C#N)c2c1 [Compound 427] | 0.00363 µM | 0.0054 µM
CS(=O)(=O)CCCOc1cc(-c2nc[nH]n2)cc2c(C#N)c(C(F)(F)P(=O)(O)O)sc12 [Compound 428] | 0.0025 µM | 0.0025 µM
Cc1c(C(F)(F)P(=O)(O)O)sc2c(OCCCS(C)(=O)=O)cc(C(N)=O)cc12 [Compound 429, ((5-carbamoyl-3-methyl-7-(3-(methylsulfonyl)propoxy)benzo[b]thiophen-2-yl)difluoromethyl)phosphonic acid] | 0.0872 µM | 0.0821 µM
CNC(=O)c1cc(OCCCS(C)(=O)=O)c2sc(C(F)(F)P(=O)(O)O)c(C)c2c1 [Compound 430] | 0.109 µM | 0.0617 µM
Cc1c(C(F)(F)P(=O)(O)O)sc2c(OCCCC(F)(F)F)cc(C(N)=O)cc12 [Compound 431] | 0.119 µM | 0.0993 µM
Cc1c(C(F)(F)P(=O)(O)O)sc2c(OCCCS(N)(=O)=O)cc(C(N)=O)cc12 [Compound 432] | 0.114 µM | 0.117 µM
CNC(=O)c1cc(OCCCS(N)(=O)=O)c2sc(C(F)(F)P(=O)(O)O)c(C)c2c1 [Compound 433] | 0.033 µM | 0.0293 µM
Cc1c(C(F)(F)P(=O)(O)O)sc2c(OCC3CC3(F)F)cc(C(N)=O)cc12 (centres unmarked) [Compound 434] | 0.438 µM | 0.482 µM
Cc1c(C(F)(F)P(=O)(O)O)sc2c(OCC3CC3(F)F)cc(C(N)=O)cc12 (centres unmarked) [Compound 435] | 0.13 µM | 0.207 µM
Cc1c(C(F)(F)P(=O)(O)O)sc2c(OCCCS(C)(=O)=O)cc(-c3nc[nH]n3)cc12 [Compound 436] | 0.0066 µM | 0.0067 µM
Cc1c(C(F)(F)P(=O)(O)O)sc2c(OCCCC(C)(C)O)cc(C(N)=O)cc12 [Compound 437] | 0.109 µM | 0.153 µM
Cc1c(C(F)(F)P(=O)(O)O)sc2c(OCc3ccc(S(C)(=O)=O)cc3)cc(C(N)=O)cc12 [Compound 438] | 0.0215 µM | 0.0274 µM
CS(=O)(=O)CCCOc1cc(-c2nc[nH]n2)cc2c(Br)c(C(F)(F)P(=O)(O)O)sc12 [Compound 439, ((3-bromo-7-(3-(methylsulfonyl)propoxy)-5-(1H-1,2,4-triazol-3-yl)benzo[b]thiophen-2-yl)difluoromethyl)phosphonic acid] | 0.0025 µM | 0.0025 µM
NS(=O)(=O)CCCOc1cc(-c2nc[nH]n2)cc2c(Br)c(C(F)(F)P(=O)(O)O)sc12 [Compound 440] | 0.0025 µM | 0.0025 µM
O=P(O)(O)C(F)(F)c1sc2c(OCC3CC3(F)F)cc(-c3nc[nH]n3)cc2c1Br (centres unmarked) [Compound 441] | 0.0025 µM | 0.0025 µM
O=P(O)(O)C(F)(F)c1sc2c(OCC3CC3(F)F)cc(-c3nc[nH]n3)cc2c1Br (centres unmarked) [Compound 442] | 0.00556 µM | 0.005 µM
